Counter-ions that a name gives are not always drawn. Like-named read-outs stand apart in the source and are kept apart here.
How the values were obtained:
[1] = system: mice; assay: Acute toxicity in mice; type: in vivo; settings: intravenous, subdermal, intraperitoneal or oral, 4000 mg/kg
[2] = system: Candida albicans; assay: Therapeutic effect on experimental candidosis in mice; type: in vivo; settings: intravenously infected, twice administration, total of dosages
[3] = Solubility; type: physicochemical
Excerpt: The physico-chemical properties of TAN-950A (monosodium salt) obtained in Example 2 described later are as follows.

[4] = system: Trichophyton rubrum IFO 5467; assay: Paper disc agar diffusion, growth-inhibition zone; type: cell-based; settings: IFO5467, monosodium salt, disc 1000 μg/ml, 28 °C, read-out: Diameter of growth-inhibition zone
Method: (§1) Paper discs (8 mm. in diameter, manufactured by Toyo Seisakusho) immersed in an aqueous solution of the antibiotic TAN-950A (monosodium salt) (1000 μg/ml) were put on agar plates seeded with the test organism, and these agar plates were incubated at a given […] for a given period of time. In the Table, "0" means no formation of the growth-inhibition zone. Culture media employed are as follows:
A: Sabouraud's dextrose agar medium
(§2) D: Yeast nitrogen base agar medium (Difco Laboratories, USA) supplemented with glucose (2%) and agar (1.5%)

[5] = system: Bacillus subtilis PCI 219; assay: Paper disc agar diffusion, growth-inhibition zone; type: cell-based; settings: PCI219, monosodium salt, disc 1000 μg/ml, medium C, 37 °C, 20 h, 0 = no zone, read-out: Diameter of growth-inhibition zone
Method: as §1
(§3) C: Trypticase soy agar (Becton Dickinson Co., USA)

[6] = system: Escherichia coli NIH JC-2; assay: Paper disc agar diffusion, growth-inhibition zone; type: cell-based; settings: NIHJC2, monosodium salt, disc 1000 μg/ml, medium C, 37 °C, 20 h, 0 = no zone, read-out: Diameter of growth-inhibition zone
Method: as §1, §3

[7] = system: Candida parapsilosis IFO1396; assay: Paper disc agar diffusion, growth-inhibition zone; type: cell-based; settings: Lodderomyces parapsilosis, monosodium salt, disc 1000 μg/ml, medium D, 28 °C, 48 h, read-out: Diameter of growth-inhibition zone
Method: as §1, §2

[8] = system: Candida parakrusei IFO0640; assay: Paper disc agar diffusion, growth-inhibition zone; type: cell-based; settings: monosodium salt, disc 1000 μg/ml, medium D, 28 °C, 48 h, read-out: Diameter of growth-inhibition zone
Method: as §1, §2

[9] = system: Candida tropicalis IFO0006; assay: Paper disc agar diffusion, growth-inhibition zone; type: cell-based; settings: monosodium salt, disc 1000 μg/ml, medium D, 28 °C, 48 h, read-out: Diameter of growth-inhibition zone
Method: as §1, §2

[10] = system: Microsporum gypseum IFO 6075; assay: Paper disc agar diffusion, growth-inhibition zone; type: cell-based; settings: Nannizzia gypsea, IFO6075; monosodium salt, disc 1000 μg/ml; medium D, 28 °C, 72 h; read-out: Diameter of growth-inhibition zone
Method: as §1, §2

[11] = system: Penicillium chrysogenum IFO 4626; assay: Paper disc agar diffusion, growth-inhibition zone; type: cell-based; settings: IFO4626, monosodium salt, disc 1000 μg/ml, 28 °C, read-out: Diameter of growth-inhibition zone
Method: as §1
(§4) B: Yeast nitrogen base agar medium (Difco Laboratories, USA) supplemented with L-asparagine (0.17%)
as §2

[12] = system: Candida albicans IFO 0583; assay: Paper disc agar diffusion, growth-inhibition zone; type: cell-based; settings: IFO0583, 48 h, monosodium salt, disc 1000 μg/ml, 28 °C, read-out: Diameter of growth-inhibition zone
Method: as §1, §4, §2

[13] = system: Aspergillus fumigatus IFO 6344; assay: Paper disc agar diffusion, growth-inhibition zone; type: cell-based; settings: IFO6344, 48 h, monosodium salt, disc 1000 μg/ml, 28 °C, read-out: Diameter of growth-inhibition zone
Method: as §1, §4, §2

[14] = system: Filobasidium uniguttulatum IFO 0699; assay: Paper disc agar diffusion, growth-inhibition zone; type: cell-based; settings: IFO0699, 48 h, monosodium salt, disc 1000 μg/ml, 28 °C, read-out: Diameter of growth-inhibition zone
Method: as §1, §4, §2

[15] = system: Saccharomyces cerevisiae IFO 0209; assay: Paper disc agar diffusion, growth-inhibition zone; type: cell-based; settings: IFO0209, 48 h, monosodium salt, disc 1000 μg/ml, 28 °C, read-out: Diameter of growth-inhibition zone
Method: as §1, §4, §2

[16] = system: Candida utilis IFO 0619; assay: Paper disc agar diffusion, growth-inhibition zone; type: cell-based; settings: monosodium salt, disc 1000 μg/ml, 28 °C, 48 h, 0 = no zone
Method: as §1, §4, §2

[17] = system: Cryptococcus neoformans IFO 0410; assay: Paper disc agar diffusion, growth-inhibition zone; type: cell-based; settings: IFO0410, 48 h, monosodium salt, disc 1000 μg/ml, 28 °C, read-out: Diameter of growth-inhibition zone
Method: as §1, §4, §2

[18] = system: Torulopsis glabrata IFO 1085; assay: Paper disc agar diffusion, growth-inhibition zone; type: cell-based; settings: Nakaseomyces glabratus, IFO1085, 48 h, monosodium salt, disc 1000 μg/ml, 28 °C, read-out: Diameter of growth-inhibition zone
Method: as §1, §4, §2

[19] = system: Candida albicans; assay: TLC-bioautography using Candida albicans; type: cell-based; settings: aqueous layer of culture filtrate; cellulose f, acetonitrile:water (3:1)

## N[C@@H](Cc1c[nH]oc1=O)C(=O)O [TAN-950A monosodium salt]
[1]
  acute toxicity: No acute toxicity
[2]; oral
  ED50: 105 mg/kg
[2]; sc, subcutaneous
  ED50: 40 mg/kg
[3]; acetone
  Solubility: Sparingly soluble
[3]; chloroform
  Solubility: Sparingly soluble
[3]; dimethyl sulfoxide
  Solubility: Soluble
[3]; ethyl acetate
  Solubility: Sparingly soluble
[3]; methanol
  Solubility: Soluble
[3]; water
  Solubility: Soluble

## N[C@@H](Cc1c[nH]oc1=O)C(=O)O [TAN-950A]
[4]; medium A, 48 h, 0 = no zone
  zone of inhibition at 1000 µg/mL: 0 mm
[4]; medium D, 72 h
  zone of inhibition at 1000 µg/mL: 47 mm
[5]
  zone of inhibition at 1000 µg/mL: 0 mm
[6]
  zone of inhibition at 1000 µg/mL: 0 mm
[7]
  zone of inhibition at 1000 µg/mL: 40 mm
[8]
  zone of inhibition at 1000 µg/mL: 43 mm
[9]
  zone of inhibition at 1000 µg/mL: 25 mm
[10]
  zone of inhibition at 1000 µg/mL: 41 mm
[11]; medium B, 66 h, 0 = no zone
  zone of inhibition at 1000 µg/mL: 0 mm
[11]; medium D, 72 h
  zone of inhibition at 1000 µg/mL: 35 mm
[12]; medium B
  zone of inhibition at 1000 µg/mL: 21 mm
[12]; medium D
  zone of inhibition at 1000 µg/mL: 34 mm
[13]; medium B, 0 = no zone
  zone of inhibition at 1000 µg/mL: 0 mm
[13]; medium D
  zone of inhibition at 1000 µg/mL: 57 mm
[14]; medium B
  zone of inhibition at 1000 µg/mL: 23 mm
[14]; medium D
  zone of inhibition at 1000 µg/mL: 35 mm
[15]; medium B
  zone of inhibition at 1000 µg/mL: 24 mm
[15]; medium D
  zone of inhibition at 1000 µg/mL: 25 mm
[16]; Williopsis jadinii, IFO0619, medium B, read-out: Diameter of growth-inhibition zone
  zone of inhibition at 1000 µg/mL: 0 mm
[16]; medium D
  Diameter of growth-inhibition zone: 0 mm
[17]; medium B, 0 = no zone
  zone of inhibition at 1000 µg/mL: 0 mm
[17]; medium D
  zone of inhibition at 1000 µg/mL: 27 mm
[18]; medium B
  zone of inhibition at 1000 µg/mL: 23 mm
[18]; medium D
  zone of inhibition at 1000 µg/mL: 26 mm
[19]
  inhibition zone in TLC-bioautography: inhibition zones

Reference: patent US4895864A, “Antibiotic TAN-950A, its production and use” (Takeda Chemical Industries, Ltd., priority 1987, dated 1990)
